According to ChEMBL document CHEMBL1201862, “PubChem BioAssay data set” (2004):
Where a name gives a salt, the structure may show the parent alone.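 Grown in 96-well plates, cells were treated for 48 hours with each compound at five concentrations. Insufficient inhibition: endpoint recorded as highest concentration tested. At the GI50, growth is halved.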 The source made the active and inactive calls. Cut-off read from the data, not from the text of the source: active = GI50 up to about 1.1 µM and inactive = higher.

How the values were obtained:
Assay in all cases: NCI anticancer screen, dose series, 48 h
[1] = tested on: A498
[2] = tested on: BT-549
[3] = tested on: CAKI-1
[4] = tested on: HCC 2998
[5] = tested on: MDA-MB-435
[6] = tested on: Malme-3M
[7] = tested on: NCI-H460
[8] = tested on: OVCAR-3
[9] = tested on: OVCAR-5
[10] = tested on: OVCAR-8
[11] = tested on: RPMI-8226
[12] = tested on: SF-268
[13] = tested on: SN12C
[14] = tested on: SNB-19
[15] = tested on: SW-620
[16] = tested on: UACC-257
[17] = tested on: UO-31
[18] = tested on: EKVX
[19] = tested on: HOP-92
[20] = tested on: M14

SMILES	GI50 [1]	GI50 [2]	GI50 [3]	GI50 [4]	GI50 [5]	GI50 [6]	GI50 [7]	GI50 [8]	GI50 [9]	GI50 [10]	GI50 [11]	GI50 [12]	GI50 [13]	GI50 [14]	GI50 [15]	GI50 [16]	GI50 [17]	GI50 [18]	GI50 [19]	GI50 [20]
O=C(O)C12C3CCC(O3)C1(C(=O)O)C1CCC2O1 (configuration not stated)	> 100 µM (inactive)	> 100 µM (inactive)	> 100 µM (inactive)	> 100 µM (inactive)	> 100 µM (inactive)	> 100 µM (inactive)	> 100 µM (inactive)	> 100 µM (inactive)	> 100 µM (inactive)	> 100 µM (inactive)	> 100 µM (inactive)	> 100 µM (inactive)	> 100 µM (inactive)	> 100 µM (inactive)	> 100 µM (inactive)	> 100 µM (inactive)	> 100 µM (inactive)	–	–	–
Cc1ccc2c(c1)S(=O)(=O)c1ccc3ccccc3c1N2	> 100 µM (inactive)	> 100 µM (inactive)	> 100 µM (inactive)	> 100 µM (inactive)	> 100 µM (inactive)	–	> 100 µM (inactive)	> 100 µM (inactive)	> 100 µM (inactive)	> 100 µM (inactive)	–	> 100 µM (inactive)	> 100 µM (inactive)	> 100 µM (inactive)	> 100 µM (inactive)	> 100 µM (inactive)	> 100 µM (inactive)	> 100 µM (inactive)	> 100 µM (inactive)	> 100 µM (inactive)
Cc1cc2[nH]c3c(C#N)c(-c4ccccc4)c(/N=N/c4ccc(F)cc4)c(=O)n3c2cc1C	> 100 µM (inactive)	> 100 µM (inactive)	> 100 µM (inactive)	> 100 µM (inactive)	> 100 µM (inactive)	–	83.9 µM (inactive)	3.21 µM (inactive)	> 100 µM (inactive)	–	> 100 µM (inactive)	35.9 µM (inactive)	> 100 µM (inactive)	> 100 µM (inactive)	> 100 µM (inactive)	> 100 µM (inactive)	> 100 µM (inactive)	> 100 µM (inactive)	–	> 100 µM (inactive)
CCCCNC(=O)C1=C(C)NC(C)=C(C(=O)NCCCC)C1	> 100 µM (inactive)	> 100 µM (inactive)	> 100 µM (inactive)	> 100 µM (inactive)	> 100 µM (inactive)	–	> 100 µM (inactive)	> 100 µM (inactive)	> 100 µM (inactive)	> 100 µM (inactive)	–	> 100 µM (inactive)	> 100 µM (inactive)	> 100 µM (inactive)	> 100 µM (inactive)	> 100 µM (inactive)	> 100 µM (inactive)	58.7 µM (inactive)	> 100 µM (inactive)	> 100 µM (inactive)
O=C(N/N=C1\CCc2ccccc2C1)N/N=C1\CCc2ccccc2C1	–	> 10 µM (inactive)	> 10 µM (inactive)	> 10 µM (inactive)	> 10 µM (inactive)	> 10 µM (inactive)	> 10 µM (inactive)	> 10 µM (inactive)	> 10 µM (inactive)	> 10 µM (inactive)	> 10 µM (inactive)	> 10 µM (inactive)	> 10 µM (inactive)	> 10 µM (inactive)	> 10 µM (inactive)	> 10 µM (inactive)	> 10 µM (inactive)	> 10 µM (inactive)	–	> 10 µM (inactive)
CC(=O)OC[C@H]1CN(OC(C)=O)C[C@@H](n2cc(C)c(=O)[nH]c2=O)O1	> 100 µM (inactive)	> 100 µM (inactive)	> 100 µM (inactive)	> 100 µM (inactive)	> 100 µM (inactive)	–	> 100 µM (inactive)	–	> 100 µM (inactive)	> 100 µM (inactive)	> 100 µM (inactive)	> 100 µM (inactive)	> 100 µM (inactive)	> 100 µM (inactive)	> 100 µM (inactive)	> 100 µM (inactive)	> 100 µM (inactive)	> 100 µM (inactive)	–	> 100 µM (inactive)
[O-][n+]1nc(N2CCOCC2)nc2ccccc21	43.3 µM (inactive)	> 100 µM (inactive)	> 100 µM (inactive)	> 100 µM (inactive)	> 100 µM (inactive)	> 100 µM (inactive)	–	–	> 100 µM (inactive)	> 100 µM (inactive)	> 100 µM (inactive)	> 100 µM (inactive)	> 100 µM (inactive)	> 100 µM (inactive)	> 100 µM (inactive)	> 100 µM (inactive)	> 100 µM (inactive)	> 100 µM (inactive)	–	> 100 µM (inactive)
[O-][S+]1CC[S+]([O-])CC[S+]([O-])CC1 (configuration not stated)	–	> 100 µM (inactive)	–	> 100 µM (inactive)	> 100 µM (inactive)	–	> 100 µM (inactive)	> 100 µM (inactive)	> 100 µM (inactive)	> 100 µM (inactive)	–	> 100 µM (inactive)	> 100 µM (inactive)	> 100 µM (inactive)	> 100 µM (inactive)	> 100 µM (inactive)	> 100 µM (inactive)	> 100 µM (inactive)	> 100 µM (inactive)	> 100 µM (inactive)
Cc1nc(Cl)c(CBr)c(Cl)n1	11.7 µM (inactive)	0.272 µM (active)	2.28 µM (inactive)	3.64 µM (inactive)	1.64 µM (inactive)	0.838 µM (active)	2.33 µM (inactive)	0.596 µM (active)	2.05 µM (inactive)	1.72 µM (inactive)	0.889 µM (active)	2.69 µM (inactive)	1.73 µM (inactive)	3.68 µM (inactive)	0.351 µM (active)	0.832 µM (active)	1.68 µM (inactive)	5.87 µM (inactive)	–	0.427 µM (active)
COc1ccc(CCNC(=O)c2ccccc2C2c3ccc(OCc4ccccc4)cc3Oc3cc(OCc4ccccc4)ccc32)cc1OC	> 100 µM (inactive)	> 100 µM (inactive)	> 100 µM (inactive)	> 100 µM (inactive)	> 100 µM (inactive)	> 100 µM (inactive)	–	> 100 µM (inactive)	> 100 µM (inactive)	> 100 µM (inactive)	> 100 µM (inactive)	> 100 µM (inactive)	> 100 µM (inactive)	> 100 µM (inactive)	> 100 µM (inactive)	94.6 µM (inactive)	> 100 µM (inactive)	> 100 µM (inactive)	–	> 100 µM (inactive)
CC1OC(OC2C(O[C@H]3CC[C@@H]4C(=CC[C@@H]5[C@@]4(C)C(=O)C[C@]4(C)[C@@H]([C@H](C)CC[C@@H](O)C(C)(C)O)CC[C@@]54C)C3(C)C)OC(CO)C(O)C2O)C(O)C(O)C1O (some centres not stated)	> 100 µM (inactive)	> 100 µM (inactive)	> 100 µM (inactive)	> 100 µM (inactive)	> 100 µM (inactive)	> 100 µM (inactive)	> 100 µM (inactive)	> 100 µM (inactive)	> 100 µM (inactive)	> 100 µM (inactive)	–	> 100 µM (inactive)	> 100 µM (inactive)	> 100 µM (inactive)	35.3 µM (inactive)	> 100 µM (inactive)	> 100 µM (inactive)	> 100 µM (inactive)	> 100 µM (inactive)	> 100 µM (inactive)
COc1cc(CCCOC(=O)/C=C/c2ccc(O)c(O)c2)cc(O)c1O	> 100 µM (inactive)	30.7 µM (inactive)	58.3 µM (inactive)	> 100 µM (inactive)	28.6 µM (inactive)	74 µM (inactive)	49.8 µM (inactive)	42.1 µM (inactive)	> 100 µM (inactive)	70.8 µM (inactive)	27.4 µM (inactive)	25.2 µM (inactive)	29.2 µM (inactive)	> 100 µM (inactive)	18.8 µM (inactive)	> 100 µM (inactive)	37.5 µM (inactive)	> 100 µM (inactive)	–	> 100 µM (inactive)
Fc1cccc(Cl)c1C1SCc2nc3cc4ccccc4cc3n21 (configuration not stated)	–	> 100 µM (inactive)	99.1 µM (inactive)	> 100 µM (inactive)	> 100 µM (inactive)	43.4 µM (inactive)	–	66.1 µM (inactive)	> 100 µM (inactive)	39.4 µM (inactive)	> 100 µM (inactive)	> 100 µM (inactive)	61.1 µM (inactive)	52.7 µM (inactive)	> 100 µM (inactive)	> 100 µM (inactive)	–	> 100 µM (inactive)	19.6 µM (inactive)	> 100 µM (inactive)
C=C1C(=O)C23CC1CCC2C12CO[C@H](O)[C@H]1C(C)(C)[C@H](OC(C)=O)C[C@H]2OC3=O (some centres not stated)	–	9.48 µM (inactive)	15.2 µM (inactive)	22.6 µM (inactive)	21.5 µM (inactive)	13.3 µM (inactive)	34.6 µM (inactive)	22.5 µM (inactive)	18.8 µM (inactive)	30.6 µM (inactive)	76.7 µM (inactive)	14.7 µM (inactive)	21.1 µM (inactive)	> 100 µM (inactive)	14.3 µM (inactive)	30.3 µM (inactive)	22.9 µM (inactive)	15.1 µM (inactive)	10.1 µM (inactive)	25.4 µM (inactive)
NCCCCNCCCN [SPERMIDINE TRIHYDROCHLORIDE]	> 100 µM (inactive)	> 100 µM (inactive)	1.71 µM (inactive)	> 100 µM (inactive)	27.4 µM (inactive)	> 100 µM (inactive)	> 100 µM (inactive)	> 100 µM (inactive)	> 100 µM (inactive)	> 100 µM (inactive)	–	> 100 µM (inactive)	–	> 100 µM (inactive)	> 100 µM (inactive)	> 100 µM (inactive)	> 100 µM (inactive)	> 100 µM (inactive)	> 100 µM (inactive)	> 100 µM (inactive)
